According to US10392398B2, “Inhibitors of Late SV40 Factor (LSF) as cancer chemotherapeutics” (TRUSTEES OF BOSTON UNIVERSITY, priority 2010, dated 2019):
“And” between values parts separate entries of the source, which are not always exact repeats. Equal entries are not always repeated. Where two headings read alike, the source gives them in different places.

Columns and labels:
Assay type in all cases: cell-based
USF = assay: USF-dependent reporter assay
Protocol: USF-dependent reporter assays were performed with FQI1 only. Averages with standard deviation (SD) derive from 3-4 independent experiments. […] “−LSF”: translation extract with no programmed LSF. […] Myc-LSF-HA expression was induced with the small molecule inducer RSL1. In induced cells, FQI1 or vehicle was added for the final 12 h of myc-LSF-HA induction.

NIH/3T3 cells = assay: Cell proliferation assay (MTS), NIH/3T3; details: Mus musculus, NIH3T3
Protocol: (§1) Cells were plated at 3×10^4 cells/mL, A549 and HeLa, and 1×10^4 cells/mL, NIH/3T3, in 96-well plates and incubated for 24 h to allow for cell adhesion. LSF-library compounds were dissolved in DMSO, serial diluted in appropriate medium and added to cells in triplicate (2 plates). DMSO was added to control wells at a final concentration of 1%. After 72 h incubation in the presence of compound, confluent cells were assayed for growth proliferation with CellTiter 96® AQueous One Solution Cell Proliferation Assay (MTS) (Promega) according to the manufacturer's protocol. Plates were read at 490 nm on a microplate reader, and IC50 values were determined as the percentage of compound-treated cell growth to control cell growth. HCC cells—one hour after plating HCC cells onto 96-well plates, compound or vehicle (DMSO) was added to the desired concentrations, keeping DMSO at 0.5%. At indicated time points, cell viability was assayed using the CellTiter 96® Non-Radioactive Cell Proliferation Assay (MTT) (Promega).
(§2) QGY-7703 and A549 cells were cultured at 37° C. in 5% CO2 in DMEM (Dulbecco's modification of Eagle's Medium; Corning) supplemented with 10% Fetal Bovine Serum (FBS; Invitrogen). NIH-3T3 cells were cultured at 37° C. in 5% CO2 in DMEM supplemented with 10% Fetal Calf Serum (FCS; Atlanta Biologicals). For cell viability assays, 1,500 cells were seeded in 96-well plates and treated with FQI-34 or vehicle (DMSO) at appropriate concentrations (DMSO at 1%) after 20 hours. After 72-hour incubation with compound or vehicle, cell growth was assessed via the Promega CellTiter 96® AQueous One Solution Cell Proliferation Assay, a colorimetric method to determine the number of viable cells. 20 μL of the CellTiter 96® AQueous One Solution Reagent was added directly into cultured wells and incubated for one hour, after which the absorbance at 490 nm was read with a 96-well plate reader (Opys MR Microplate Reader). The CellTiter 96® AQueous One Solution contains an MTS tetrazolium compound which is bioreduced by cells into a colored formazan product that is soluble in tissue culture medium. The quantity of formazan product as measured by absorbance is directly proportional to the number of living cells in culture. GI50 values were determined from plots of the percentage of compound-treated cell growth to vehicle cell growth vs. compound concentration (GraphPad Prism; non-linear regression 4-parameter curve fit with variable slope).

A549 cells = assay: Cell proliferation assay (MTS), A549; details: for GI50: MTS
Protocol: as §1, §2

HepG3 cells = assay: TUNEL apoptosis assay, HepG3; details: same conditions as QGY-7703
Protocol: HCC cells were plated 24 h prior to incubation with FQI1. At the indicated time points, cells were analyzed using the FragEL™ DNA fragmentation kit (Calbiochem) according to the manufacturer's protocol. Flow cytometry was performed using a FACS caliber (Becton Dickinson) and analyzed with Cell Quest software.

LSF = target: T1, LSF (Homo sapiens, UniProt Q12800); assay: LSF-dependent luciferase reporter assay in NIH 3T3 cells; set-up: expressed in transfected cells; host or cells: NIH 3T3
T1 sequence (Q12800 1-502): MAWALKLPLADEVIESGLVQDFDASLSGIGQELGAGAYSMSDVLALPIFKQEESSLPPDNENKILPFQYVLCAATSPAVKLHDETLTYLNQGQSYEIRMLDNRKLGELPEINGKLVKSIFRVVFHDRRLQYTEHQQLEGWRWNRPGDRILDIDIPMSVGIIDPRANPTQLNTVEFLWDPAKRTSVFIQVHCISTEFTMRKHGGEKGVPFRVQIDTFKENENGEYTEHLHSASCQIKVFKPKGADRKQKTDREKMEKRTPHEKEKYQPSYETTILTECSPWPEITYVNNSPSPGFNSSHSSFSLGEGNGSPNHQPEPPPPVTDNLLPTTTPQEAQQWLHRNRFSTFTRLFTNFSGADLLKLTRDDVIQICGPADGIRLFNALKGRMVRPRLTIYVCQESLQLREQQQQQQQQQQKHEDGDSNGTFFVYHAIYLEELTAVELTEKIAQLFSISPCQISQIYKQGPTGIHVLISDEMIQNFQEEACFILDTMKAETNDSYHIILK
Protocol: NIH 3T3 cells were transfected with the expression construct pEF1α-LSF, a LSF expression vector^6,20; the reporter construct pGL3B-WT4E1b, a firefly luciferase reporter vector driven by LSF^12; phRL-TK, a control renilla luciferase reporter vector; and pEFGP, essentially as previously described^12. Five hours after transfection, either vehicle (DMSO) or FQI compound was added, keeping DMSO at 0.5%. Cell extracts were harvested 36 hours post-transfection and firefly and renilla luciferase activities measured via a dual luciferase assay (Promega). Five μl of extract was mixed with 30 μl of luciferase assay reagent (Promega), and luminescence measured for 10 seconds using a 20/20n luminometer (Turner Biosystems). Subsequently, 30 μl of Stop & Glo reagent (Promega) was added, and luminescence also measured for 10 seconds. LSF transactivation activity is given as relative luciferase activity, the ratio of firefly to renilla activities.
NIH-3T3 cells were cultured at 37° C. in 5% CO2 in DMEM (Dulbecco's modification of Eagle's Medium; Corning) supplemented with 10% FCS (FCS; Atlanta Biologicals). Approximately 24 hours prior to transfection, 200,000 cells were plated in 35 mm dishes. After 24 hours, cells were ˜70% confluent, and were transfected for 5 hours with pEF1α-LSF, the reporter construct pGL3B-WT4E1b, phRLTK, and pEFGP (Grant, T. J. et al. Antiproliferative small-molecule inhibitors of transcription factor LSF reveal oncogene addiction to LSF in hepatocellular carcinoma. PNAS (2012), 109, 1-6). Vehicle (DMSO) or FQI-34 was then added, keeping the DMSO at 0.5%. Cell extracts were harvested 36 h post-transfection, and firefly and renilla luciferase activities were measured via a dual luciferase assay (Promega Dual-Luciferase Reporter Assay System). Relative luciferase activity represents firefly luciferase activity normalized to that of renilla luciferase in each extract. IC50 values were determined from plots of normalized luciferase activity vs. compound concentration (Prism GraphPad; non-linear regression 4-parameter curve fit with variable slope).

| SMILES | transactivation of a USF-dependent reporter by USF (USF) | GI50 (NIH/3T3 cells; 72 h, MTS, read-out: GI50 (μM) NIH/3T3) [µM] | IC50 (NIH/3T3 cells; Example 7, FIG. 8, read-out: growth inhibition of NIH/3T3 Cell Line IC50) [µM] | GI50 (NIH/3T3 cells; Table 3, read-out: GI50 (μM) NIH 3T3) [µM] | GI50 (A549 cells; Homo sapiens, 72 h, read-out: GI50 (μM) A549) [µM] | IC50 (A549 cells; Homo sapiens, Example 7, FIG. 8, read-out: growth inhibition of A549 Cell Line IC50) [µM] | TUNEL positivity of HepG3 cells (HepG3 cells) | IC50 (LSF; NIH 3T3 cells, dual luciferase, ranges where few concentrations tested, read-out: IC50 (μM) LSF-dependent reporter assat NIH 3T3) | GI50 (NIH/3T3 cells; 1,500 cells seeded, 72-hour incubation, MTS, read-out: GI50 in NIH-3T3 cells) [µM] | GI50 (A549 cells; Homo sapiens, 1,500 cells seeded, 72-hour incubation, read-out: GI50 in A549 cells) [µM] | IC50 (LSF; Table 5, read-out: LSF-reporter assay IC50) [µM] | IC50 (LSF; Table 8, read-out: LSF-reporter assay IC50) [µM] | IC50 (LSF; dual-luciferase reporter, NIH-3T3, FIG. 12, read-out: LSF-Target affinity IC50) [µM] |
| --- | --- | --- | --- | --- | --- | --- | --- | --- | --- | --- | --- | --- | --- |
| CCOc1ccccc1C1CC(=O)Nc2cc3c(cc21)OCO3 (racemic) [FQI1, 8-(2-ethoxyphenyl)-7,8-dihydro-[1,3]dioxolo[4,5-g]quinolin-6(5H)-one] | unaffected | 3 | 3 ± 0.85 | 3 ± 0.9 | 6.3 | 6.3 ± 1.1 | not TUNEL-positive | ~2.4 µM and 2.4 µM | – | – | – | – | – |
| CCOc1cc(N(C)C)ccc1C1CC(=O)Nc2cc3c(cc21)OCO3 (stereo not shown) [FQI-34, 8-(4-(dimethylamino)-2-ethoxyphenyl)-7,8-dihydro-[1,3]dioxolo[4,5-g]quinolin-6(5H)-one] | – | – | – | – | – | – | – | – | 1.49 | 1.8 | 0.726 | 0.726 | 0.59 |
